In paper PMC8360157, “The chemical compound ‘Heatin’ stimulates hypocotyl elongation and interferes with the Arabidopsis NIT1‐subfamily of nitrilases” (The Plant Journal, 2021):

Molecular target: T1, NIT1 (NITRILASE1) (Arabidopsis thaliana, UniProt P32961)
T1 construct: recombinant, 6xHis-tagged, expressed in Escherichia coli, (NH4)2SO4 precipitation, Ni-NTA and PD-10 purified; tag cleavage not mentioned
T1 sequence (P32961 2-346): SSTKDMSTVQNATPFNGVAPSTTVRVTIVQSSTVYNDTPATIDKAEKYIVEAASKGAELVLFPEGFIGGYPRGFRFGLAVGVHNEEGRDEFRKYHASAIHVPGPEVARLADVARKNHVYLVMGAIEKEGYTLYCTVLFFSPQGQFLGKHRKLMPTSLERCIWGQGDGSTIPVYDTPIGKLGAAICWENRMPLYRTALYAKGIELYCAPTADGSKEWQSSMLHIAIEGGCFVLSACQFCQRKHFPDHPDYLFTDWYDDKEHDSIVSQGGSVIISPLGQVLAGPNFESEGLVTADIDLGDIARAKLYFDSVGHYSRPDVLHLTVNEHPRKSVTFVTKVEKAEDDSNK
Test: Berthelot colorimetric ammonia assay; IC50 by linear-regression interpolation
Assay type: biochemical

SMILES: CC(Nc1cccc2ccccc12)C(=O)NN=Cc1c(O)ccc2ccccc12 (stereo not shown) [D, N'‐[(2‐hydroxy‐1‐naphthyl)methylene]‐2‐(1‐naphthylamino)propanohydrazide]
- IC50: ~20.7 µM
